Experimental data from US8999921B2, “Process for diagnosing rheumatic diseases” (Cypress Bioscience, Inc., priority 2005, dated 2015).

Experiments:
[1] = molecular target: T1, antibody binding to mutated vimentin (Homo sapiens, UniProt P08670, A54Y/A67Y/G16R/G41R/G59R/G76R/P18T/P24T/P46T/P75T/R78S); assay: Blocking of antibody binding to mutated vimentin in vitro (ELISA, RA sera)
T1 construct: His-tag; made in house; host or cells: E. coli
Method: To prepare an extract from green tea, 5 g of any commercially available tea were covered with 10 ml of 80% DMSO and stirred overnight. The solution was centrifuged at 13 000 rpm for 10. min and defined as tea extract. In contrast to the above solid substances 1, 2 and 4-6, 10 μl/ml tea extract of this preparation were employed. Antibody binding in the presence and absence of substances was analyzed in an ELISA for which microtiter plates were prepared analogously to Example 2. Different sera of RA patients were used in dilutions of from 1:100 to 1:400. Blocking of antibody binding was induced by preincubating 100 μl of the diluted serum with the substances or tea solutions indicated for 10 min. Subsequently, the remaining crossreaction was analyzed by transferring the 100 μl of serum-substance mixture to the cavities of said microtiter plate. According to the procedure of a classical ELISA, the bound antibodies were detected by means of a HRP-conjugated anti-human IgG. FIG. 3 depicts by way of example the results obtained using patient serum No. 400725.

vimentin = vimentin (Homo sapiens, UniProt P08670); settings: Ermakova et al. 2005; cited from earlier work
Chain of vimentin (P08670 whole entry, species assumed): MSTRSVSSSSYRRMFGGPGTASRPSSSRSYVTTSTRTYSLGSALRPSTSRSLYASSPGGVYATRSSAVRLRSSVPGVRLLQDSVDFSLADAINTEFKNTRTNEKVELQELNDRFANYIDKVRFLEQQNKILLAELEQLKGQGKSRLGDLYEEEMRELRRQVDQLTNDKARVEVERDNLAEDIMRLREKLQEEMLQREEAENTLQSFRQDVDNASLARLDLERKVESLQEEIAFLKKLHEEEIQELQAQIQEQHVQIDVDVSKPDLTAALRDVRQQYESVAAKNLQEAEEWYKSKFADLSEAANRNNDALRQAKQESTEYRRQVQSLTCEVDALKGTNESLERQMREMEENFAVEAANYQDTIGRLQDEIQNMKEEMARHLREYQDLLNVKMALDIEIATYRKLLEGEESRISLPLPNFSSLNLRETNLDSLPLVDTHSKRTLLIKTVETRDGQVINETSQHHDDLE

[2] = Oral administration of freeze-dried tea extract to rats, plasma analysis by HPLC and GC/MS; format: in vivo
Description: Therefore the tea extracts prepared by us (see Example 7) were freeze-dried and reconstituted with cocoa oil or salmon oil. After oral administration of an extract prepared from 5 g of green tea (5 g/kg of body weight) to rats, blood was taken every half hour and analyzed by means of HPLC and GC/MS.

[3] = tested on: antibodies to the polypeptides of the invention; assay: Follow-up of antibody titer (ELISA based on the polypeptide) and DAS score in treated RA patients; format: in vivo, human; settings: for antibody titers, fraction of the starting value: patients with low disease activity (average DAS 2.8), in the course of 1-2 years, on average; for alteration in the DAS score due to treatment: severe rheumatoid arthritis (average DAS score of 4.9)
Description: Patients having low disease activity (average DAS score of 2.8) were identified by an ELISA based on the polypeptide of the invention (<300 U/ml on average). Correlating with the success of treatment (DAS score less than 1.5 after treatment) with sulfasalazine or cortisone, the antibody titers were reduced to, on average, ⅙ of the starting value in the course of 1-2 years.
Patients suffering from severe rheumatoid arthritis (average DAS score of 4.9) had, on average, an antibody titer of >1000 U/ml. […] In parallel with the altered antibody titer, patients reported during anamnesis a substantially more positive overall evaluation of their subjective situation regarding the disease, i.e. the diagnostic agent of the invention is also suitable for quality control of the therapy of a severe rheumatoid arthritis.

[4] = extract from 5 g green tea (5 g/kg of body weight)

T1 sequence (P08670 whole entry G16R/P18T/P24T/G41R/P46T/A54Y/G59R/A67Y/P75T/G76R/R78S): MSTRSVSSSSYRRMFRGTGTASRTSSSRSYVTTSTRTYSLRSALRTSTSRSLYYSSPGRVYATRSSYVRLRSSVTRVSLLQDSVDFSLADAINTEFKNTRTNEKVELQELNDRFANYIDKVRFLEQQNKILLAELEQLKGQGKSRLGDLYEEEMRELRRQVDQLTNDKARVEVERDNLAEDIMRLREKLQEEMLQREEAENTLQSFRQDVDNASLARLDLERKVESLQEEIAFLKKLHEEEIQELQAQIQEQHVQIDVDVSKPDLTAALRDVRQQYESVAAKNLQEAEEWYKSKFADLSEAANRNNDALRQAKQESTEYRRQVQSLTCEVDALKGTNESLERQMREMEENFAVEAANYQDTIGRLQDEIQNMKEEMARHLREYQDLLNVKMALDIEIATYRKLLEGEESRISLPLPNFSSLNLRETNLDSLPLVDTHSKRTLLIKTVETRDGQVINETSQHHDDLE

Compound: Oc1cc(O)c2c(c1)O[C@H](c1ccc(O)c(O)c1)[C@H](O)C2 [EC, Epicatechin]
- blocking of antibody binding ([1]; competition experiments, maximum): ≤ 10%

Compound: O=C(O[C@@H]1Cc2c(O)cc(O)cc2O[C@@H]1c1cc(O)c(O)c(O)c1)c1cc(O)c(O)c(O)c1 [EGCG, Epigallocatechin gallate]
- blocking of formation of autoimmune complexes of autoantibodies to mutated vimentin [1]: blocked in a concentration-dependent manner
- blocking of antibody binding ([1]; concentration of 10-100 μg/ml): no more than 45%
- binding to vimentin (vimentin): binds to vimentin
- maximum plasma concentration for EGCG (content of 50% in the extract) [2, 4]: about 245 μg/ml
- maximum plasma concentration of EC and EGCG (5-13% of the extract mass) [2, 4]: 75 µg/mL
- time of maximum plasma concentration after intake ([2]; extract from 5 g green tea (5 g/kg of body weight) in cocoa oil or salmon oil): About 2 hours

Compound: C[C@]12CCC(=O)C=C1CC[C@@H]1[C@@H]2C(=O)C[C@@]2(C)[C@H]1CC[C@]2(O)C(=O)CO [cortisone]
- antibody titers, fraction of the starting value [3]: ⅙

Compound: CN(Cc1cnc2nc(N)nc(N)c2n1)c1ccc(C(=O)N[C@@H](CCC(=O)O)C(=O)O)cc1 [methotrexate]
- alteration in the DAS score due to treatment [3]: no significant alteration

Compound: O=C(O)c1cc(/N=N/c2ccc(S(=O)(=O)Nc3ccccn3)cc2)ccc1O [sulfasalazine]
- antibody titers, fraction of the starting value [3]: ⅙

Compound: Remicade: marketed drug used to treat severe rheumatoid arthritis
- alteration in the DAS score due to treatment [3]: no significant alteration
